For the series, the system named is cells expressing IGFR1 (murine BALB/c 3T3 cells; p6 cells overexpressing a transfected human IGFR1 gene; human Jurkat cells as negative control). Description: Cellular uptake of PNA-peptide conjugates by cells in vitro. It counts as cell-based. The settings on record: versus control PNA Gly-CCGCTTCCTTTC without peptide; measured with both the 14C-conjugate and the fluoresceinyl-conjugate; BALB/c 3T3, p6 and Jurkat cells. The text has this:
To improve cellular uptake of an IGFR1 antisense sequence targeted against IGFR1 mRNA codons 706-709 (CCGCTTCCTTTC, SEQ ID NO:42; Ullrich et al., 1986, EMBO J. 5:10:2503-2512), a PNA with this base sequence was conjugated to a D-amino acid IGF1 peptide having the sequence (Gly)4D(Cys-Ser-Lys-Cys). This peptide binds selectively to the cell surface receptor for insulin-like growth factor 1 (IGFR1), which is overexpressed on malignant cells (Pietrzkowski et al., 1992, Mol. Cell. Biol. 12:9:3883-3889). The same PNA was also conjugated to a control peptide of the sequence (Gly)4D(Cys-Ala-Ala-Cys), which is not expected to bind to cells expressing IGFR1. The IGF1 D-peptide and control peptide was assembled on (4-methyl benzhydrypamine (MBHA) resin, and then the PNA was extended as a continuation of the peptide. The IGF1 peptide and control peptide sequences were radiolabeled with ^14C or fluorescently labeled with fluorescein isothiocyanate (Basu & Wickstrom, 1997, Bioconj. Chem. 8:4:481-488).

Consider “Gly-CCGCTTCCTTTC-(Gly)4D(CysSerLysCys) (PNA, Gly, (Gly)4, D-peptide, 14C or fluorescein label, chemistry not fully specified) [labeled with 14C or fluorescein]”, for which the cellular uptake entry is reported as “much higher uptake than the control Gly-CCGCTTCCTTTC, but only in cells expressing IGFR1”.

The values are drawn from patent publication US20110123988A1, “ANTISENSE COMPOUNDS AND METHODS FOR DIAGNOSTIC IMAGING” (GENESEEN LLC, priority 2003, published 2011).
